{
  "source": "patent US12076331B2",
  "about": "“Inositol derivatives for use in pathological crystallization” (ETH Zurich, priority 2015, dated 2024)",
  "test": "In-solution screening of CaP precipitation and aggregation in artificial renal tubular fluid (RTF)",
  "assay_type": "physicochemical",
  "details": "9 mM phosphate, 8 mM calcium, 4 h",
  "procedure": "(§1) Effects of (A) OEG2-IP5, (B) OEG11-IP5, (C) (OEG2)2-IP4, (D) (OEG11)2-IP4 and (E) OEG8-(IP5)2. on CaP precipitation in RTF spiked with 9 mM disodium phosphate and 8 mM calcium chloride were assessed by light microscopy followed by automated image analysis at t=4 h. Quantification of the total area covered with CaP precipitates/total area field of view (N=3, mean+SD, normalized to the control).\nas §1, with “mean size of aggregates/field” for “total area covered with CaP precipitates/total area field”, “view normalized to the ctrl” for “view”\nOverview table showing the minimal concentration of compound (FIG. 3 for the chemical structures) required to achieve complete inhibition of CaP precipitation (total area covered with crystals <10% of total area control); and minimal concentration required to prevent CaP crystal aggregation in the CaP screening assay (CaP aggregate size <50% of aggregate size control) (N=3).\nAn artificial renal tubular fluid (RTF) with a final composition of 0.05 mM oxalate, 0.005 mM sulphate, 408 mM sodium, 424 mM chloride, 0.26 mM potassium, 4 mM magnesium and 0.2 mM citrate in double distilled water was prepared according to a literature report (Fasano, J. M. et al., Kidney Int. 59, 169-178. DOI: 10.1046/j. 1523-1755.2001.00477.x, 2001). The solution was filtered with a 0.45-μm syringe filter. Twenty mM Bis-Tris buffer was added to the reported protocol to ensure pH stability throughout experiments and pH was set to 7.2. The artificial RTF was stored at room temperature for up to four months. Stock solutions of 0.25 M phosphate and 1 M calcium were prepared in double distilled water and were stored separately at −20° C.\nTwenty-x final concentration phosphate, 20× final concentration calcium and 10× final concentration compound dilutions were prepared in RTF. Assay mixture consisting of 80% RTF, 10% compound dilution, 5% phosphate dilution and 5% calcium dilution was prepared in Eppendorf tubes as follows. RTF (320 μL) was mixed with 20 μL phosphate dilution (final concentration of 9 mM), 40 μL compound dilution and 20 μL calcium dilution (final concentration of 8 mM). The assay mixture was vortexed after adding each component and 380 μL of the mixture were immediately added to 8-well glass bottom slides and incubated for 4 hat RT. CaP precipitation was assessed using a Leica DM 6000B microscope (Leica Microsystems, Wetzlar, Germany) in brightfield mode. For quantification 3 wells/condition with 3-4 images/well were imaged with a 40× objective. The total area covered with CaP deposits in percentage of the field of view and the mean size of CaP aggregates were determined.\nIn a first step, the influence of selected IP6 analogues (FIG. 5) on CaP precipitation and growth was assessed in vitro using artificial renal tubular fluid (RTF) (Table 1). In a previous study, the inventors investigated CaP protein particle formation in serum. However, an important difference to cardiovascular calcification lies in the extremely low protein content of the renal tubular fluid vs. the high abundance of proteins in blood, which can stabilize amorphous particles. Two cut-offs were chosen for assessing efficacy. First, complete inhibition was defined as a >90% reduction of detected CaP precipitates compared to the control sample without compound. Second, inhibition of CaP aggregation was defined as a >50% reduction of the mean size of aggregates when compared to the control.",
  "data": [
    {"molecule": "COCCOCCO[C@@H]1C(OP(=O)(O)O)[C@H](OCCOCCOC)[C@@H](OP(=O)(O)O)C(OP(=O)(O)O)[C@H]1OP(=O)(O)O", "note": "(stereo partly shown) [(OEG2)2-IP4]", "values": [
      {"measurement": "effect on CaP precipitation/crystallization in words", "result": "did not further increase the inhibitory activity"}
    ]}
  ]
}
